# From US10864179B2, “Histone deacetylase inhibitors for the use in the treatment of drug resistant melanoma” (STICHTING HET NEDERLANDS KANKER INSTITUUT-ANTONI VAN …, priority 2015, dated 2020)
# “Also recorded” adds a separate entry of the source.
# Key:
# A375 melanoma cells [1] = assay: Long-term colony formation assay, A375 cells; type: cell-based, human; conditions: for effect of HDACi on the anti-proliferative effect of vemurafenib: HDACi together with vemurafenib; for proliferation in long-term colony formation assay: drug(s) without HDACi/BRAFi partner; for effect of HDACi on dabrafenib, trametinib and their combination: FIG. 3
# Source text: (§1) FIG. 1. BRAF inhibition is antagonized by HDAC inhibition in melanoma. A). […] The cells were fixed and stained at day 14. B). Short-term proliferation assay of melanoma (A375) cells. […] Error bars represent s.d. of biological triplicates. C,D). HDAC inhibitors and vemurafenib have antagonistic effects on MAPK pathway and HDAC inhibitors can rescue cells from vemurafenib-induced apoptosis. A375 were pre-treated with 1 microM vorinostat and 1 microM entinostat for 48 hrs and then treated with the combination of HDAC inhibitor (1 microM) and vemurafenib (1 microM) for additional 24 hrs. The levels of p-RB, p-MEK, MEK, cleaved PARP (cl. PARP) and ac-H3 were detected by western blot. β-actin served as the loading control.
# (§2) FIG. 2. Other HDACi also confer resistance to vemurafenib. […] B).
# (§3) FIG. 3. HDACi confers resistance to the combination of a MEK and a BRAF inhibitor in melanoma. A,B,C).
# [2] = system: 4397A, 4397B, 4393R and 4393L cells; assay: Long-term colony formation assay, ex vivo PLX4720-resistant A375 clones; type: cell-based, human; conditions: four cell lines with in vivo acquired PLX4720 resistance
# Source text: FIG. 8. In vitro and ex vivo BRAF inhibitor-resistant clones are hypersensitive to HDACi.
# We explanted four PLX4720 resistant tumors from mice immediately after acquisition of PLX4720 resistance in vivo and continued to culture these cells in vitro in the presence of BRAF inhibitor. These cells were designated 4397A, 4397B, 4393R and 4393L.
# A375DR cells = assay: Long-term colony formation assay, dabrafenib/trametinib double-resistant A375DR cells; type: cell-based, human
# Source text: (§4) These cells are BRAF mutated melanoma.
# A375R cells = assay: Long-term colony formation assay, vemurafenib-resistant A375R cells; conditions: for sensitivity of cells in proliferation assay, HDACi panel: Vorinostat 1 uM, 01994 4 uM, AR2 0.5 uM, Pracinostat 0.25 uM, Quisinostat 25 nM, 8 day
# Description: Long-term colony formation assay of melanoma (A375 and A375R clone) cells. […] Cells were fixed and stained at day 12. […] Long-term colony formation assay of melanoma Mel888 parental and vemurafenib-resistant Mel888R cells (three different clones Mel888RC-A, B and C) were seeded at the same cell density in 6-well plates and cultured in presence of vorinostat (1 microM) and/or vemurafenib (2 microM). Cells were fixed and stained at day 10. […] Long-term colony formation assay of melanoma A375 parental and double-resistant cells seeded in 12-well plates and treated with 2 microM vemurafenib and/or 0.5 microM CDX101 (CDX). Medium and drugs were refreshed every 2-3 days. Cells were fixed and stained on day 10.
# Medium and drugs were refreshed every 2-3 days. Cells were fixed and stained on day 10
# Long-term colony formation assay of A375 parental and MAPKi resistant A375R, A375DR cells treated sulfasalazine and vorinostat. Medium and drugs were refreshed every 2-3 days. Cells were fixed and stained on day 10.
# The A375 melanoma cell line was obtained from ATCC. MEL888 were gifts from D. Peeper (Amsterdam, The Netherlands). WM266-4 and Colo741 cell line were provided by R. Marais (Manchester, UK). These cells are BRAF mutated melanoma. All the cell lines were cultured in DMEM medium supplemented with 10% FBS, 1% penicillin/streptomycin and 2 mM I-glutamine. Vemurafenib-resistant A375 and MEL888 cells were generated by long term (at least 3 months) culturing with 2 microM vemurafenib. Dabrafenib-Trametinib combination resistant A375 cells were generated by long term (at least 3 months) culturing with 0.25 microM Dabrafenib and 10 nM Trametinib (MEK inhibitor). Vemurafenib-resistant ex-vivo clones were isolated from immunodeficient BalbC mice, which were long-term treated with PLX4720-chow (50 mg/kg). All the in vitro cell lines have been STR profiled.
# Cells were seeded into 6-well plates (5*10^4˜1*10^5 cells per well) or 12-well plates (4*10^4 cells per well) and cultured both in the absence and presence of drugs as indicated.
# [3] = system: A375 melanoma tumor xenografts; assay: A375 mouse xenografts; type: in vivo, BalbC immunodeficient nude mice; conditions: for tumor volume of PLX4720-resistant tumors after randomization: PLX4720 300 mg/kg in chow and/or vorinostat 100 mg/kg i.p.
# Description: FIG. 7. HDACi is effective in treatment of BRAF inhibitor resistant melanoma in vivo. A,B). […] A375 melanoma cells were grown as tumor xenografts in BalbC immunodeficient nude mice. After tumor establishment (150-200 mm3), mice were treated with (A). vehicle, PLX4720 (40 mg/kg supplemented in the chow). Upon development of BRAF inhibitor resistance, mice receiving PLX4720 were randomized in four arms (B) receiving: vehicle, PLX4720 (300 mg/kg supplemented in the chow), Vorinostat (100 mg/kg i.p.) or PLX4720 (300 mg/kg supplemented in the chow) plus Vorinostat (100 mg/kg i.p.). C). Resistance to vemurafenib in A375 cells is mediated through reactivation of MAP kinase pathway. Biochemical responses of A375-resistant ex vivo clones and A375 parental cell line treated with 2 microM vemurafenib were documented by western blot analysis. Cells were harvested at 24 hrs after drug treatment. […] HSP90 served as the loading control. […].
# A375 melanoma cells (2×10^6 cells per mouse) were injected subcutaneously into the right posterior flanks of 7-week-old immunodeficient BalbC or NMRI nude female mice (6 mice per group; Janvier Laboratories, The Netherlands). Tumor formation was monitored twice a week, and tumor volume based on caliper measurements was calculated by the modified ellipsoidal formula (tumor volume=½(length×width2)). When tumors reached a volume of approximately 0.3 cm^3, mice were randomized into treatment arms. PLX4720 (Plexxikon) was formulated in the chow by Research Diets dosed at 300 mg/kg and vorinostat was formulated in DMSO/saline solution, and it was dosed at 100 mg per kg daily by intraperitoneal injection. When resistance to PLX4720 arises in the group treated with PLX4720, mice bearing tumors of approximately 0.3 cm^3 were again randomized into the treatment arms with the same drug dosages. Animal experiments were approved by the Animal Ethics Committee of the Netherlands Cancer Institute and performed in accordance with institutional, national and European guidelines for Animal Care and Use.
# To investigate whether HDACi treatment is a suitable therapy for MPAK pathway inhibitor resistant melanoma, e.g. BRAF inhibitor resistant melanoma, we injected parental vemurafenib sensitive A375 cells into a cohort of 24 BalbC immunodeficient nude mice. After tumors had reached an average volume of 150-200 mm3, we started treatment with vemurafenib by feeding the animals chow supplemented with 40 mg/kg of PLX4720. […] After that period, tumors began to increase in size, indicative of the development of drug resistance (FIG. 7A). When drug resistant tumors in the mice had reached a size of 800 mm3, mice were randomized to four cohorts that were treated either with:
# A) no drug; B) PLX4270; C) PLX4270 and vorinostat; D) Vorinostat.
# [4] = system: NRAS-mutant melanoma patients; conditions: phase II; cited from earlier work
# Colo741 melanoma cells = assay: Long-term colony formation assay, Colo741 cells; type: cell-based; conditions: for effect of HDACi on dabrafenib, trametinib and their combination: FIG. 3
# Source text: as §2, §3
# A375 cells = assay: Staining of beta-galactosidase activity; type: cell-based, human
# Source text: β-galactosidase activity in cells was detected using Histochemical Staining Kit (CS0030-1KT) from Sigma-Aldrich. The detection was applied according to the manufacturer's instructions.
# [5] = system: p-MEK in WM2664 melanoma cells; assay: Western blot of p-MEK, WM2664 cells; type: cell-based; conditions: single drug
# Description: Cells were seeded in medium containing 10% fetal bovine serum (FBS) for indicated time, and then washed with PBS and lysed with RIPA buffer supplemented with protease inhibitor (cOmplete, Roche) and Phosphatase Inhibitor Cocktails II and III (Sigma). All lysates were freshly prepared and processed with Novex NuPAGE Gel Electrophoresis Systems (Invitrogen).
# XCT (SLC7A11) mRNA = assay: qRT-PCR of SLC7A11 in SK-MEL-147 and SK-MEL-147R cells; conditions: 72 hours vorinostat treatment
# Description: The relative mRNA levels were detected by qRT-PCR analysis after 72 hours vorinostat treatment. Error bars represent s.d. of measurement replicates (n=3, *** p<0.001, Student's t-test).
# RNA isolation from cell lines harvested with TRIzol reagent (Invitrogen) according to the manufacturer's instruction. cDNA synthesis was performed with Maxima Universal First Strand cDNA Synthesis Kit (# K1661, Thermo scientific) according to manufacturer's instruction.
# A375 melanoma cells [6] = assay: Short-term proliferation assay (IncuCyte), A375 cells; type: cell-based, human; conditions: each drug alone, 1 microM
# Source text: as §1
# SK-MEL-147R cells = assay: Long-term colony formation assay, MEKi-resistant SK-MEL-147R cells; type: cell-based, human
# Description: (a). Long-term colony formation assay of SK-MEL-147 and MEKi-resistant SK-MEL-147R cells cultured in the presence of 1 μM vorinostat and/or 100 nM Trametinib.
# (b). Long-term colony formation assay of SK-MEL-147 and SK-MEL-147R cells cultured in the presence of indicated concentrations of vorinostat and/or 5 mM NAC.
# (§5) The A375, SK-Mel-147 and SK-Mel-2 melanoma cell lines were obtained from ATCC. […] Trametinib resistant SK-mel-147 and SK-mel-2 were generated by long term culturing with 25 nM (first month), 50 nM (second month) and 100 nM (third month) trametinib.
# (§6) For full details, see ref. (Huang et al., 2009).
# [7] = system: MEL888RC-A, B and C cells; assay: Long-term colony formation assay, vemurafenib-resistant MEL888 clones; type: cell-based; conditions: vorinostat 1 microM, CXD101 0.5 microM
# Source text: FIG. 5. […] Cells were fixed and stained on day 8.
# as §4
# p-MEK in A375 cells = assay: Western blot of MAPK pathway and apoptosis markers, A375 cells; type: cell-based, human; conditions: single drug
# Source text: as §1
# FIG. 7. HDACi is effective in treatment of BRAF inhibitor resistant melanoma in vivo. A,B). […] A375 melanoma cells were grown as tumor xenografts in BalbC immunodeficient nude mice. After tumor establishment (150-200 mm3), mice were treated with (A). vehicle, PLX4720 (40 mg/kg supplemented in the chow). Upon development of BRAF inhibitor resistance, mice receiving PLX4720 were randomized in four arms (B) receiving: vehicle, PLX4720 (300 mg/kg supplemented in the chow), Vorinostat (100 mg/kg i.p.) or PLX4720 (300 mg/kg supplemented in the chow) plus Vorinostat (100 mg/kg i.p.). C). Resistance to vemurafenib in A375 cells is mediated through reactivation of MAP kinase pathway. […]
# SK-MEL-2R cells = assay: Long-term colony formation assay, MEKi-resistant SK-MEL-2R cells; type: cell-based, human; conditions: 5 mM NAC
# Description: (i). Long-term colony formation assay of SK-MEL-2 and MEKi-resistant SK-MEL-2R cells cultured in the presence of 1 μM vorinostat and/or 100 nM Trametinib.
# (j) Long-term colony formation assay of SK-MEL-2 and SK-MEL-2R cells cultured in the presence of indicated concentrations of vorinostat and/or 5 mM NAC.
# as §5, §6
smiles,measurement,setting,value
O=C(/C=C/c1cccc(S(=O)(=O)Nc2ccccc2)c1)NO [belinostat],effect of HDACi on the anti-proliferative effect of vemurafenib,A375 melanoma cells [1],conferred resistance to vemurafenib
same,proliferation in long-term colony formation assay,A375 melanoma cells [1],mildly anti-proliferative
same,sensitivity of cells to HDACi,[2],very sensitive
O=C(O)c1cc(/N=N/c2ccc(S(=O)(=O)Nc3ccccn3)cc2)ccc1O [sulfasalazine],toxicity in long-term colony formation assay,A375DR cells; sulfasalazine 0.2 to 0.4 mM,toxic
same,toxicity in long-term colony formation assay,"A375R cells; A375R cells, sulfasalazine 0.2 to 0.4 mM",toxic
CCCS(=O)(=O)Nc1ccc(F)c(C(=O)c2c[nH]c3ncc(Cl)cc23)c1F [PLX4720],tumor volume of PLX4720-resistant tumors after randomization,[3],continued tumor volume increase
same,period of tumor growth suppression before resistance,[3]; chow supplemented with 40 mg/kg of PLX4720,around 3 months
same,tumor growth,"[3]; chow supplemented with 40 mg/kg of PLX4720, start at 150-200 mm3",significant suppression of tumor growth
Cn1cnc2c(F)c(Nc3ccc(Br)cc3F)c(C(=O)NOCCO)cc21 [MEK162],patients with objective responses,[4],20%
same,patients with stable disease,[4],43%
CC(C)[C@H](C(=O)Nc1ccc(C(=O)NO)cc1)c1ccccc1 [AR2],"sensitivity of cells in proliferation assay, HDACi panel",A375R cells; A375R cells,very sensitive
O=C(CCCCCCC(=O)Nc1ccccc1)NO [vorinostat],"effect of HDACi on dabrafenib, trametinib and their combination",Colo741 melanoma cells,able to confer resistance to these drugs
same,effect of HDACi on the anti-proliferative effect of vemurafenib,Colo741 melanoma cells; HDACi together with vemurafenib,conferred resistance to vemurafenib
same,"effect of HDACi on dabrafenib, trametinib and their combination",A375 melanoma cells [1],able to confer resistance to these drugs
same,effect of HDACi on the anti-proliferative effect of vemurafenib,A375 melanoma cells [1],almost completely negated the anti-proliferative effects of vemurafenib
same,proliferation in long-term colony formation assay,A375 melanoma cells [1],inhibition of proliferation
same,acidic beta-galactosidase (senescence marker),A375 cells,induction of acidic beta-galactosidase
same,p-MEK levels,[5],increase in phospho-MEK (p-MEK)
same,XCT (SLC7A11) mRNA expression,XCT (SLC7A11) mRNA,reduced XCT (also known as SLC7A11) mRNA expression; also recorded: suppressed SLC7A11 expression
same,"cell proliferation (cell confluence, IncuCyte)",A375 melanoma cells [6],restricted cell proliferation
same,sensitivity of cells in long-term colony formation assay,"A375R cells; A375R cells versus parental A375, vorinostat 1 microM, vemurafenib 2 microM",far more sensitive to vorinostat than parental A375 cells; also recorded: massive inhibition of proliferation; also recorded: hypersensitive
same,"sensitivity of cells in proliferation assay, HDACi panel",A375R cells; A375R cells,very sensitive
same,sensitivity of cells in long-term colony formation assay,"SK-MEL-147R cells; SK-MEL-147R versus parental SK-MEL-147, 1 μM vorinostat, 100 nM Trametinib",acquired significant sensitivity
same,tumor volume of PLX4720-resistant tumors after randomization,[3],rapid decline in tumor volume; also recorded: complete disappearance of the tumors after two months; also recorded: suppress melanoma growth
same,sensitivity of cells to HDACi,[2],very sensitive
Nc1ccccc1NC(=O)c1ccc(CNC(=O)OCc2cccnc2)cc1 [entinostat],"effect of HDACi on dabrafenib, trametinib and their combination",Colo741 melanoma cells,able to confer resistance to these drugs
same,"effect of HDACi on dabrafenib, trametinib and their combination",A375 melanoma cells [1],able to confer resistance to these drugs
same,sensitivity of cells in long-term colony formation assay,[7],hypersensitive
same,p-MEK levels,p-MEK in A375 cells,increases p-MEK levels
CCCCc1nc2cc(/C=C/C(=O)NO)ccc2n1CCN(CC)CC [Pracinostat],"sensitivity of cells in proliferation assay, HDACi panel",A375R cells; A375R cells,very sensitive
Cc1nn(C)cc1CN1CCC(c2ccc(C(=O)Nc3ccccc3N)cc2)CC1 [CXD101],effect of HDACi on the anti-proliferative effect of vemurafenib,A375 melanoma cells [1],conferred resistance to vemurafenib
same,proliferation in long-term colony formation assay,A375 melanoma cells [1],mildly anti-proliferative
same,sensitivity of cells in long-term colony formation assay,[7],hypersensitive
same,sensitivity of cells in long-term colony formation assay,A375DR cells; 0.5 microM CDX101,very sensitive
same,sensitivity of cells in long-term colony formation assay,"A375DR cells; 0.5 microM CDX101, listed as CDX101",hypersensitive
CC(C)(C)c1nc(-c2cccc(NS(=O)(=O)c3c(F)cccc3F)c2F)c(-c2ccnc(N)n2)s1 [dabrafenib],proliferation in long-term colony formation assay,Colo741 melanoma cells; MAPK pathway inhibitor(s) without HDACi,effective in limiting proliferation
same,proliferation in long-term colony formation assay,A375 melanoma cells [1],effective in limiting proliferation
"CC(=O)N[C@@H](CS)C(=O)O [NAC, N-acetyl-L-cysteine]",effect on the toxic effects of vorinostat,SK-MEL-2R cells,"countered, at least in part"
same,effect on the toxic effect of vorinostat,"SK-MEL-147R cells; SK-MEL-147R cells, 5 mM NAC",rescued
Cn1cc(CNCC2CCN(c3ncc(C(=O)NO)cn3)CC2)c2ccccc21 [Quisinostat],"sensitivity of cells in proliferation assay, HDACi panel",A375R cells; A375R cells,very sensitive
